{"source": "patent US8193220B1", "about": "(priority 2009, dated 2012)", "key": {"[1]": {"test_system": "eye muscles (lateral rectus muscle)", "type": "in vivo, human"}, "[2]": {"test_system": "eye muscles (lateral rectus muscle)", "settings": "bupivacaine injected into eye muscles of strabismus patients; cited from earlier work"}, "[3]": {"test_system": "extensor digitorum longus muscle", "settings": "rat hind limb extensor digitorum longus; cited from earlier work"}}, "note": "Like-named read-outs stand apart in the source and are kept apart here.", "data": [{"compound": "CCCCN1CCCCC1C(=O)Nc1c(C)cccc1C", "note": "(stereo not drawn) [bupivacaine]", "values": [{"measurement": "change of eye alignment", "setting": "[1]; bupivacaine alone into lateral rectus", "value": "ineffective in changing eye alignment"}, {"measurement": "correction of strabismus", "setting": "[1]; human, in vivo", "value": "successful correction of strabismus"}, {"measurement": "length of regenerated lateral rectus muscle", "setting": "[1]; human, in vivo", "value": "shorter length"}, {"measurement": "length of regenerated lateral rectus muscle", "setting": "[1]; one case of esotropia, bupivacaine alone, antagonist medial rectus unopposed", "value": "longer muscle"}, {"measurement": "myotoxicity and weakness of the injected lateral rectus muscle", "setting": "[1]; one case of esotropia, bupivacaine alone, first injection", "value": "very pronounced"}, {"measurement": "effect on strabismus deviations", "setting": "[2]", "value": "correction or improvement of strabismus deviations"}, {"measurement": "period of hypertrophy (growth beyond the original state) after regeneration", "setting": "[2]", "value": "20 to 30", "unit": "days"}, {"measurement": "period of muscle weakness after injection", "setting": "[2]", "value": "7 to 16", "unit": "days"}, {"measurement": "muscle size after injection", "setting": "[3]", "value": "enlargement of the muscle beyond its original size"}]}]}
